# Experimental data reported in patent publication EP2607478A1, “Phenanthroline treated MSC” (Universiteit Twente, priority 2011, dated 2013).
# System: MSCs
# Test: Whole genome expression analysis (Illumina microarray) of treated MSCs
# Type: cell-based, Human
# Procedure: MSCs were seeded in T25 flasks at 5000 cells/cm^2 and allowed to attach overnight in proliferation medium. […] After 48 hours, RNA was isolated as described above. From 500 ng of RNA, cRNA was synthesized using the Illumina TotalPrep RNA amplification Kit (Ambion), according to the manufacturer's protocol and the quality of RNA and cRNA was verified on a Bioanalyzer 2100 (Agilent). Microarrays were performed using Illumina HT-12 v4 expression Beadchips, according to the manufacturer's protocol. Briefly, 750 ng of cRNA was hybridized on the array overnight after which the array was washed and blocked. Then, by addition of streptavidin Cy-3 a fluorescent signal was developed. Arrays were scanned on an Illumina iScan reader and raw intensity values were background corrected in GenomeStudio (Illumina). Further data processing and statistical testing were performed with R and Bioconductor statistical software (www.bioconductor.org), using package lumi. Raw intensity values were transformed using variance stabilization and a quantile normalization was performed. A linear modelling approach with empirical Bayesian methods, as implemented in Limma package (54), was applied for differential expression analysis of the resulting probe-level expression values. A gene list, containing only those genes with an absolute 1.5-fold change between different treatments, was uploaded to Ingenuity Pathway Analysis (IPA) software and used for core analysis. Pathways or networks with a p-value of 0.05 were considered statistically significant.
smiles,measurement,setting,value
"c1cnc2c(c1)ccc1cccnc12 [PHE, 1, 10-phenanthroline]",logFC(D142_PHE - D142_BAS),"ProbeID ILMN_1827736, no gene name printed","2,01"
same,logFC(D142_PHE - D142_BAS),"ProbeID ILMN_1843198, no gene name printed","4,02"
same,logFC(D142_PHE - D142_BAS),"ProbeID ILMN_1854469, no gene name printed","-2,31"
same,logFC(D142_PHE - D142_BAS),"ProbeID ILMN_1862909, no gene name printed","2,60"
same,logFC(D142_PHE - D142_BAS),"ProbeID ILMN_1890614, no gene name printed","3,60"
same,logFC(D142_PHE - D142_BAS) LDLR,ProbeID ILMN_2053415,"-2,22"
same,logFC(D142_PHE - D142_BAS) PTGS2,ProbeID ILMN_2054297,"2,59"
same,logFC(D142_PHE - D142_BAS) GAS1,ProbeID ILMN_2062701,"-2,22"
same,logFC(D142_PHE - D142_BAS) GOLGA8B,ProbeID ILMN_2103547,"2,29"
same,logFC(D142_PHE - D142_BAS) EEF1A2,ProbeID ILMN_2108735,"4,24"
same,logFC(D142_PHE - D142_BAS) NPM3,"ProbeID ILMN_2110252, PHE vs BAS","-2,68"
same,logFC(D142_PHE - D142_BAS) CTHRC1,"ProbeID ILMN_2117508, PHE vs BAS","-3,58"
same,logFC(D142_PHE - D142_BAS) LRIG1,ProbeID ILMN_2128795,"2,70"
same,logFC(D142_PHE - D142_BAS) CYBASC3,ProbeID ILMN_2129505,"-2,00"
same,logFC(D142_PHE - D142_BAS) IGFBP5,ProbeID ILMN_2132982,"2,36"
same,logFC(D142_PHE - D142_BAS) POL3S,ProbeID ILMN_2133187,"2,59"
same,logFC(D142_PHE - D142_BAS) PLIN2,ProbeID ILMN_2138765,"3,41"
same,logFC(D142_PHE - D142_BAS) HIST2H2AA3,ProbeID ILMN_2144426,"3,65"
same,logFC(D142_PHE - D142_BAS) TNC,"ProbeID ILMN_2145670, PHE vs BAS","-2,96"
same,logFC(D142_PHE - D142_BAS) GBP1,"ProbeID ILMN_2148785, PHE vs BAS","-2,77"
same,logFC(D142_PHE - D142_BAS) SERPINB2,ProbeID ILMN_2150851,"2,73"
same,logFC(D142_PHE - D142_BAS) SERPINB2,ProbeID ILMN_2150856,"2,92"
same,logFC(D142_PHE - D142_BAS) ALDH1B1,"ProbeID ILMN_2150894, PHE vs BAS","-3,56"
same,logFC(D142_PHE - D142_BAS) MNS1,ProbeID ILMN_2157240,"-2,02"
same,logFC(D142_PHE - D142_BAS) GPI,ProbeID ILMN_2173451,"2,47"
same,logFC(D142_PHE - D142_BAS) MT1E,ProbeID ILMN_2173611,"-2,20"
same,logFC(D142_PHE - D142_BAS) IL8,ProbeID ILMN_2184373,"6,28"
same,logFC(D142_PHE - D142_BAS) PFKFB3,ProbeID ILMN_2186061,"5,23"
same,logFC(D142_PHE - D142_BAS) RRAD,ProbeID ILMN_2186137,"3,18"
same,logFC(D142_PHE - D142_BAS) GDF15,ProbeID ILMN_2188862,"4,56"
same,logFC(D142_PHE - D142_BAS) MELK,ProbeID ILMN_2212909,"-2,05"
same,logFC(D142_PHE - D142_BAS) PGK1,ProbeID ILMN_2216852,"2,97"
same,logFC(D142_PHE - D142_BAS) PTGR1,ProbeID ILMN_2225537,"2,90"
same,logFC(D142_PHE - D142_BAS) SLAMF9,ProbeID ILMN_2227248,"2,67"
same,logFC(D142_PHE - D142_BAS) PCDH18,"ProbeID ILMN_2229877, PHE vs BAS","-2,41"
same,logFC(D142_PHE - D142_BAS) BEX1,"ProbeID ILMN_2234697, PHE vs BAS","-4,70"
same,logFC(D142_PHE - D142_BAS) LEPR,"ProbeID ILMN_2234956, PHE vs BAS","-2,85"
same,logFC(D142_PHE - D142_BAS) KIAA0101,"ProbeID ILMN_2285996, PHE vs BAS","-3,27"
same,logFC(D142_PHE - D142_BAS) UBE2C,ProbeID ILMN_2301083,"-2,20"
same,logFC(D142_PHE - D142_BAS) VCAM1,"ProbeID ILMN_2307903, PHE vs BAS","-5,09"
same,logFC(D142_PHE - D142_BAS) WFDC3,ProbeID ILMN_2308903,"2,87"
same,logFC(D142_PHE - D142_BAS) MAFF,ProbeID ILMN_2322375,"3,04"
same,logFC(D142_PHE - D142_BAS) RORA,ProbeID ILMN_2322498,"2,13"
same,logFC(D142_PHE - D142_BAS) CALD1,ProbeID ILMN_2324002,"-2,11"
same,logFC(D142_PHE - D142_BAS) TXNRD1,ProbeID ILMN_2324421,"2,30"
same,logFC(D142_PHE - D142_BAS) MSRB3,ProbeID ILMN_2332553,"-2,12"
same,logFC(D142_PHE - D142_BAS) PORCN,ProbeID ILMN_2337058,"3,30"
same,logFC(D142_PHE - D142_BAS) AK3L1,ProbeID ILMN_2338038,"2,61"
same,logFC(D142_PHE - D142_BAS) METRNL,ProbeID ILMN_2342066,"2,12"
same,logFC(D142_PHE - D142_BAS) FMO3,ProbeID ILMN_2344283,"-2,27"
same,logFC(D142_PHE - D142_BAS) BIRC5,"ProbeID ILMN_2349459, PHE vs BAS","-2,71"
same,logFC(D142_PHE - D142_BAS) MAD1L1,ProbeID ILMN_2358069,"2,09"
same,logFC(D142_PHE - D142_BAS) TPM1,ProbeID ILMN_2360710,"-2,27"
same,logFC(D142_PHE - D142_BAS) VLDLR,ProbeID ILMN_2361862,"3,53"
same,logFC(D142_PHE - D142_BAS) SLC16A3,ProbeID ILMN_2364022,"2,29"
same,logFC(D142_PHE - D142_BAS) SMOX,ProbeID ILMN_2367258,"2,05"
same,logFC(D142_PHE - D142_BAS) CXCR7,ProbeID ILMN_2371458,"2,54"
same,logFC(D142_PHE - D142_BAS) MUC1,ProbeID ILMN_2371911,"2,27"
same,logFC(D142_PHE - D142_BAS) ATF3,ProbeID ILMN_2374865,"2,39"
same,logFC(D142_PHE - D142_BAS) VEGFA,ProbeID ILMN_2375879,"4,30"
same,logFC(D142_PHE - D142_BAS) KCNK2,"ProbeID ILMN_2376953, PHE vs BAS","-3,27"
same,logFC(D142_PHE - D142_BAS) PTPRF,ProbeID ILMN_2380163,"2,36"
same,logFC(D142_PHE - D142_BAS) AKR1A1,ProbeID ILMN_2380771,"-2,14"
same,logFC(D142_PHE - D142_BAS) P4HA2,ProbeID ILMN_2381697,"2,27"
same,logFC(D142_PHE - D142_BAS) CA12,ProbeID ILMN_2382942,"2,61"
same,logFC(D142_PHE - D142_BAS) ANGPTL4,ProbeID ILMN_2386444,"3,59"
same,logFC(D142_PHE - D142_BAS) EPSTI1,"ProbeID ILMN_2388547, PHE vs BAS","-2,93"
same,logFC(D142_PHE - D142_BAS) PSMB8,"ProbeID ILMN_2390299, PHE vs BAS","-2,40"
same,logFC(D142_PHE - D142_BAS) UBE2E3,ProbeID ILMN_2390338,"-2,31"
same,logFC(D142_PHE - D142_BAS) FBLN2,ProbeID ILMN_2390919,"-2,30"
same,logFC(D142_PHE - D142_BAS) TAGLN,"ProbeID ILMN_2400935, PHE vs BAS","-3,44"
same,logFC(D142_PHE - D142_BAS) FAM13A,ProbeID ILMN_2401258,"2,84"
same,logFC(D142_PHE - D142_BAS) RIOK3,ProbeID ILMN_2404135,"2,47"
same,logFC(D142_PHE - D142_BAS) ARNTL,ProbeID ILMN_2405305,"2,05"
same,logFC(D142_PHE - D142_BAS) PODXL,ProbeID ILMN_2413158,"3,57"
same,logFC(D142_PHE - D142_BAS) LOC100130790,ProbeID ILMN_3181489,"3,33"
same,logFC(D142_PHE - D142_BAS) LOC727803,ProbeID ILMN_3212373,"-2,02"
same,logFC(D142_PHE - D142_BAS) LOC730415,ProbeID ILMN_3228688,"2,25"
same,logFC(D142_PHE - D142_BAS) LOC390557,ProbeID ILMN_3233930,"2,45"
same,logFC(D142_PHE - D142_BAS) LOC100133609,ProbeID ILMN_3237270,"2,75"
same,logFC(D142_PHE - D142_BAS) BEND5,ProbeID ILMN_3237448,"2,26"
same,logFC(D142_PHE - D142_BAS) C4orf47,ProbeID ILMN_3237511,"2,24"
same,logFC(D142_PHE - D142_BAS) FBXL11,ProbeID ILMN_3237966,"2,06"
same,logFC(D142_PHE - D142_BAS) DLGAP5,ProbeID ILMN_3239771,"-2,24"
same,logFC(D142_PHE - D142_BAS) HIST2H2AA4,ProbeID ILMN_3242900,"3,75"
same,logFC(D142_PHE - D142_BAS) FAM180A,ProbeID ILMN_3245418,"2,34"
same,logFC(D142_PHE - D142_BAS) LOC730743,"ProbeID ILMN_3247132, PHE vs BAS","-2,35"
same,logFC(D142_PHE - D142_BAS) GAPDHL6,ProbeID ILMN_3267451,"2,90"
same,logFC(D142_PHE - D142_BAS) LOC100132510,ProbeID ILMN_3280402,"2,32"
same,logFC(D142_PHE - D142_BAS) LOC644237,ProbeID ILMN_3283772,"2,73"
same,logFC(D142_PHE - D142_BAS) LOC729708,ProbeID ILMN_3305475,"2,12"
same,logFC(D142_PHE - D142_BAS) LOC730246,ProbeID ILMN_3305949,"-2,06"
same,logFC(D142_PHE - D142_BAS) MIR1974,ProbeID ILMN_3308961,"3,51"
